Measurements as given in patent US9023616B2, “Oil producing microbes and method of modification thereof” (DSM Nutritional Products AG, priority 2006, dated 2015).
“Also recorded” adds a separate entry of the source.

Columns and labels:
[1] = tested on: ONC-T18; assay: Fatty acid production antagonist supplementation of ONC-T18 culture, fatty acid profile by FAME GC-FID; format: cell-based, Thraustochytrium sp. ONC-T18; conditions: for adrenic acid, lipid as percentage of total fatty acid / arachidic acid, lipid as percentage of total fatty acid / arachidonic acid, lipid as percentage of total fatty acid / behenic acid, lipid as percentage of total fatty acid / docosadienoic acid, lipid as percentage of total fatty acid / docosahexaenoic acid, lipid as percentage of total fatty acid / docosapentaenoic acid n-3, lipid as percentage of total fatty acid / docosapentaenoic acid n-6, lipid as percentage of total fatty acid / eicosadienoic acid, lipid as percentage of total fatty acid / eicosapentaenoic acid, lipid as percentage of total fatty acid / eicosatetraenoic acid, lipid as percentage of total fatty acid / eicosatrienoic acid, lipid as percentage of total fatty acid / eicosenoic acid, lipid as percentage of total fatty acid / heneicosapentaenoic acid, lipid as percentage of total fatty acid / hexacosanoic acid, lipid as percentage of total fatty acid / homo-gamma-linolenic acid, lipid as percentage of total fatty acid / lignoceric acid, lipid as percentage of total fatty acid / margaric acid, lipid as percentage of total fatty acid / myristic acid, lipid as percentage of total fatty acid / myristoleic acid, lipid as percentage of total fatty acid / nervonic acid, lipid as percentage of total fatty acid / oleic acid, lipid as percentage of total fatty acid / palmitic acid, lipid as percentage of total fatty acid / palmitoleic acid, lipid as percentage of total fatty acid / pentadecanoic acid, lipid as percentage of total fatty acid / pentadecenoic acid, lipid as percentage of total fatty acid / stearic acid, lipid as percentage of total fatty acid / vaccenic acid, lipid as percentage of total fatty acid: presence of the antagonist, oleic acid without glucose
Experimental: Media containing 25 g/l sea salt and 1 g/l yeast extract was autoclaved at 120° C. for 20 minutes. Sterilized glucose was added to the media at a concentration of 9 g/l. Sethoxydim (Supleco) was dissolved in dimethyl sulfoxide at a concentration of 5 mg/ml was then added to the media at to represent a final concentration of 100 µM. 1 ml of a 24 hour pre-culture of ONC-T 18 that had been cultured in the same media was added. Culturing was carried out in a shaker (130 rpm) for four days at room temperature. After the incubation period, cells were harvested by centrifugation at 4300 rpm for 10 minutes. The cell pellets were then freeze-dried, weighed and the oil was extracted from the cells.
(§1) The lipids were extracted and derivatized to fatty acid methyl esters (FAME) for gas chromatography analysis (GC). Transesterification and extraction was done using 200 mg freeze dried cells, with C19:0 as internal standard, added transesterification reaction mix (methanol:hydrochloric acid:chloroform, 10:1:1) mixed and heated at 90° C. for 2 hours, then allowed to cool at room temperature. FAMEs were extracted by adding 1 ml water, and 2 ml hexane:chloroform (4:1), and allow organic and aqueous phases to separate. The organic layer was extracted and treated with 0.5 g of anhydrous sodium sulfate to remove particulates and residual water. The organic solvents were evaporated under a stream of argon. The FAMEs were re-suspended in 5 ml of iso-octane and analyzed by GC-FID. The percent conversion was calculated by dividing the product produced by the sum of (the product produced plus the substrate added) and then multiplying by 100.
Media containing 6 g/l sea salt, 2 g/l yeast extract, and 8 g/l L-glutamic acid monosodium salt hydrate was autoclaved at 120° C. for 20 minutes. Sterilized D+-glucose was then added to this media at a concentration of 40 g/l. Cerulenin dissolved in ethanol at a concentration of 5 mg/ml was added to 250 ml flask and the solvent was evaporated for 1 hour prior to adding the media to the flask. The amount of cerulenin in the flask represented a final concentration of 20 mg/l. ONC-T18 was then added to the medium from a plate culture and culturing occurred in a shaker (130 rpm) at room temperature for four days. After the incubation period, cells were harvested by centrifugation at 4300 rpm for 10 minutes, washed once with distilled water, and then centrifuged again at 4300 rpm for 10 minutes. The cell pellets were then freeze-dried, weighed and the oil was extracted from the cells.
as §1, with “produced+the” for “produced plus the”
Media containing 6 g/l sea salt, 2 g/l yeast extract, and 8 g/l L-glutamic acid monosodium salt hydrate was autoclaved at 120° C. for 20 minutes. Sterilized D+-glucose wad then added at a concentration of 5 g/l or was not added to the media. Oleic acid was added to the media to represent a final concentration of 2 ml/l. […]

[2] = tested on: Schizochytrium limacinum SR21; conditions: dose dependant; cited from earlier work

Compound	DHA accumulated in ONC-T18, change versus control (in words) ([1]; antagonist added to medium)	adrenic acid, lipid as percentage of total fatty acid [1] [%]	arachidic acid, lipid as percentage of total fatty acid [1] [%]	arachidonic acid, lipid as percentage of total fatty acid [1] [%]	behenic acid, lipid as percentage of total fatty acid [1] [%]	docosadienoic acid, lipid as percentage of total fatty acid [1] [%]	docosahexaenoic acid, lipid as percentage of total fatty acid [1] [%]	docosapentaenoic acid n-3, lipid as percentage of total fatty acid [1] [%]	docosapentaenoic acid n-6, lipid as percentage of total fatty acid [1] [%]	eicosadienoic acid, lipid as percentage of total fatty acid [1] [%]	eicosapentaenoic acid, lipid as percentage of total fatty acid [1] [%]	eicosatetraenoic acid, lipid as percentage of total fatty acid [1] [%]	eicosatrienoic acid, lipid as percentage of total fatty acid [1] [%]	eicosenoic acid, lipid as percentage of total fatty acid [1] [%]	heneicosapentaenoic acid, lipid as percentage of total fatty acid [1] [%]	hexacosanoic acid, lipid as percentage of total fatty acid [1] [%]	homo-gamma-linolenic acid, lipid as percentage of total fatty acid [1] [%]	lignoceric acid, lipid as percentage of total fatty acid [1] [%]	margaric acid, lipid as percentage of total fatty acid [1] [%]	myristic acid, lipid as percentage of total fatty acid [1] [%]	further results
CCC/C(=N\OCC)C1=C(O)CC(CC(C)SCC)CC1=O (stereo not shown) [sethoxydim]	increase in the content and proportion of DHA	0.00	0.2	0.20	0.00	0.00	19.31	0.24	5.26	0.14	0.78	0.37	0.00	0.00	1.09	0.20	0.10	0.00	1.49	10.97	myristoleic acid, lipid as percentage of total fatty acid [1]: 0.03%; nervonic acid, lipid as percentage of total fatty acid [1]: 0.00%; oleic acid, lipid as percentage of total fatty acid [1]: 0.18%; palmitic acid, lipid as percentage of total fatty acid [1]: 40.52%; palmitoleic acid, lipid as percentage of total fatty acid [1]: 9.18%; pentadecanoic acid, lipid as percentage of total fatty acid [1]: 5.5%; pentadecenoic acid, lipid as percentage of total fatty acid [1]: 0.53%; stearic acid, lipid as percentage of total fatty acid [1]: 1.45%; vaccenic acid, lipid as percentage of total fatty acid [1]: 2.48%
Cc1ccc(C(=O)O)cc1 [p-toluic acid]	–	–	–	–	–	–	–	–	–	–	–	–	–	–	–	–	–	–	–	–	EPA concentration (in words) [2]: increasing the EPA concentration; omega-6 DPA concentration (in words) [2]: reducing the omega-6 DPA concentration
C/C=C/C/C=C/CCC(=O)[C@H]1O[C@H]1C(N)=O [cerulenin]	increases; also recorded: increase in the content and proportion of DHA	0.00	0.41	0.30	0.11	0.14	19.97	0.23	5.83	0.17	1.17	0.36	0.00	0.19	1.24	0.23	0.20	0.00	0.74	11.03	C16:0 content in ONC-T18, change versus control (in words) ([1]; antagonist added to medium): increases; myristoleic acid, lipid as percentage of total fatty acid [1]: 0.00%; nervonic acid, lipid as percentage of total fatty acid [1]: 0.00%; oleic acid, lipid as percentage of total fatty acid [1]: 0.29%; palmitic acid, lipid as percentage of total fatty acid [1]: 48.98%; palmitoleic acid, lipid as percentage of total fatty acid [1]: 2.22%; pentadecanoic acid, lipid as percentage of total fatty acid [1]: 3.23%; pentadecenoic acid, lipid as percentage of total fatty acid [1]: 0.10%; stearic acid, lipid as percentage of total fatty acid [1]: 1.86%; vaccenic acid, lipid as percentage of total fatty acid [1]: 1.24%
